This note sets out measurements from patent US8703961B2, “Thiazole derivatives for the treatment of diseases such as cancer” (Merck Patent GmbH, priority 2009, dated 2014).

The pIC50 is the IC50 on a negative log10 scale, so that one unit is a factor of ten. Lower therefore signals a large IC50.

Holding throughout (experiment): filter binding kinase assay
Holding throughout (type): biochemical

One experiment has as its target T1, INSR (Homo sapiens, UniProt P06213).
T1 construct: purchased
As to conditions: derived from % inhibition at 1 μM. An outline of the steps: (§1)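 Radioactivity retained on P81 phosphocellulose filters is the read-out. Before the reaction begins, test substance sits with kinase and substrate for 5 minutes at room temperature. The ATP solution added is 5, 20 or 50 […] according to the kinase, and acid quench ends the reaction.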

The target of the next experiment is T2, MAPK11 (Homo sapiens, UniProt Q15759).
T2 construct: purchased
As to conditions: derived from % inhibition at 1 μM. A digest of the protocol: as §1

The target in a further experiment is T3, PRKCA (Homo sapiens, UniProt P17252).
T3 construct: purchased
As to conditions: derived from % inhibition at 1 μM. An outline of the steps:
as §1

Another experiment concerns the target T4, MAPK9 (Homo sapiens, UniProt P45984).
T4 construct: purchased
To be noted: derived from % inhibition at 1 μM. An outline of the steps:
as §1

For the next experiment, the target named is T5, MYLK (Homo sapiens, UniProt Q15746).
T5 construct: purchased
As to conditions: derived from % inhibition at 1 μM. A digest of the protocol: as §1

The target of the next experiment is T6, SRC (Homo sapiens, UniProt P12931).
T6 construct: purchased
As to conditions: derived from % inhibition at 1 μM. An outline of the steps:
as §1

A further experiment deals with T7, MST4 (Homo sapiens, UniProt Q9P289).
T7 construct: purchased
As to conditions: derived from % inhibition at 1 μM. An outline of the steps: as §1

The next experiment has as its target T8, TBK1 (Homo sapiens, UniProt Q9UHD2).
T8 construct: purchased
T8 sequence (Q9UHD2 1-729): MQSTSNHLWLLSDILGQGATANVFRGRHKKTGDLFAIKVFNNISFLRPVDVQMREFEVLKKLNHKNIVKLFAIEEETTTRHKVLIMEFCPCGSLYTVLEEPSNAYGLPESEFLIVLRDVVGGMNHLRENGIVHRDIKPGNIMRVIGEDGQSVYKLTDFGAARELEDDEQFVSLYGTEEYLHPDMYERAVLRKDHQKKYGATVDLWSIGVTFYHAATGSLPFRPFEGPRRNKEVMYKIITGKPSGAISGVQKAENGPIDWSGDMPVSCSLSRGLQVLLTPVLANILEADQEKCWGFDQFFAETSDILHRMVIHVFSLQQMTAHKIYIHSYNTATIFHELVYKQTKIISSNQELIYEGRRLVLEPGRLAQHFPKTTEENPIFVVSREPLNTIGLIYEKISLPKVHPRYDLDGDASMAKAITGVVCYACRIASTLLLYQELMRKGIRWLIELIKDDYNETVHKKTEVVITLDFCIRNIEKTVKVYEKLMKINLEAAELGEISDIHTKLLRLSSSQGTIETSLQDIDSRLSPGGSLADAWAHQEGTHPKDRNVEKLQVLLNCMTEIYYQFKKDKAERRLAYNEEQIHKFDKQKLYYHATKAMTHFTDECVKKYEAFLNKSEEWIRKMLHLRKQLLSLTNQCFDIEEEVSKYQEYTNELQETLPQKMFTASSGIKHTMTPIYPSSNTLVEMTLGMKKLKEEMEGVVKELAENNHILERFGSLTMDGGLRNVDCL
To be noted: derived from % inhibition at 1 μM. An outline of the steps: as §1

The next experiment concerns the target T9, MAPK12 (Homo sapiens, UniProt P53778).
T9 construct: purchased
T9 sequence (P53778 1-367): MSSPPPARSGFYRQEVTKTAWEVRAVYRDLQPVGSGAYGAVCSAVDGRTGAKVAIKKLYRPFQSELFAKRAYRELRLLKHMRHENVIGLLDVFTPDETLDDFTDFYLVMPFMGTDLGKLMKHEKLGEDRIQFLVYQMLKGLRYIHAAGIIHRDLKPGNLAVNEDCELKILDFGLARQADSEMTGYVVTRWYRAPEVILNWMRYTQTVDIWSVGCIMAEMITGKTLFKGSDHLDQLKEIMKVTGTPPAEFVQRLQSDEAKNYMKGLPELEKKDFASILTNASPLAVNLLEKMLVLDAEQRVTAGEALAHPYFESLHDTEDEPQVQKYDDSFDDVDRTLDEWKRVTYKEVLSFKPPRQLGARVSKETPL
To be noted: derived from % inhibition at 1 μM. A digest of the protocol: as §1

The next experiment addresses T10, MAPK10 (Homo sapiens, UniProt P53779).
T10 construct: purchased
To be noted: derived from % inhibition at 1 μM. A digest of the protocol: as §1

The target of another experiment is T11, DYRK2 (Homo sapiens, UniProt Q92630).
T11 construct: purchased
T11 sequence (Q92630 1-601): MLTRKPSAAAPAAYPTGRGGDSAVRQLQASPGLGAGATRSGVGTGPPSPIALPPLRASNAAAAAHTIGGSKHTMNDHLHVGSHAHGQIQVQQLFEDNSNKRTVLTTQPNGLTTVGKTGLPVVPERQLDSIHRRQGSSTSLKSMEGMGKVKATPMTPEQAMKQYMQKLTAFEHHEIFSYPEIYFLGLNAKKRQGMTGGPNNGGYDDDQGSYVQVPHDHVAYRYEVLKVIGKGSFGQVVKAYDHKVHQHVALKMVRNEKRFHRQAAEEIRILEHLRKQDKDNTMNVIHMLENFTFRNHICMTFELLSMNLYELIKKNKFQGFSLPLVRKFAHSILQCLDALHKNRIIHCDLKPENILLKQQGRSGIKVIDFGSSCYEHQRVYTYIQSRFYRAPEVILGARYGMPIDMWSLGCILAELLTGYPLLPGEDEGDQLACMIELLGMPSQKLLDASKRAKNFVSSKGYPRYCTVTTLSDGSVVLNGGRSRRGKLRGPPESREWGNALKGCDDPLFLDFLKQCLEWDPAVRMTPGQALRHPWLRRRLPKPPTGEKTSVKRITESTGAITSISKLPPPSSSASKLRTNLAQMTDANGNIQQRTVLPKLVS
To be noted: derived from % inhibition at 1 μM. A digest of the protocol:
as §1

A further experiment deals with T12, HIPK1 (Homo sapiens, UniProt Q86Z02).
T12 construct: purchased
As to conditions: for pIC50: derived from % inhibition at 1 μM; for remaining activity at 1 µM: read-out: residual kinase activity HIPK1. A digest of the protocol: as §1

In another experiment the target is T13, PLK1 (Homo sapiens, UniProt P53350).
T13 construct: purchased
To be noted: derived from % inhibition at 1 μM. An outline of the steps:
as §1

The next experiment deals with T14, PKN2 (PRK2) (Homo sapiens, UniProt Q16513).
T14 construct: purchased
To be noted: for pIC50: derived from % inhibition at 1 μM. A digest of the protocol: as §1

pIC50: −log10 of the molar value.

T6 sequence (P12931 whole entry, species assumed): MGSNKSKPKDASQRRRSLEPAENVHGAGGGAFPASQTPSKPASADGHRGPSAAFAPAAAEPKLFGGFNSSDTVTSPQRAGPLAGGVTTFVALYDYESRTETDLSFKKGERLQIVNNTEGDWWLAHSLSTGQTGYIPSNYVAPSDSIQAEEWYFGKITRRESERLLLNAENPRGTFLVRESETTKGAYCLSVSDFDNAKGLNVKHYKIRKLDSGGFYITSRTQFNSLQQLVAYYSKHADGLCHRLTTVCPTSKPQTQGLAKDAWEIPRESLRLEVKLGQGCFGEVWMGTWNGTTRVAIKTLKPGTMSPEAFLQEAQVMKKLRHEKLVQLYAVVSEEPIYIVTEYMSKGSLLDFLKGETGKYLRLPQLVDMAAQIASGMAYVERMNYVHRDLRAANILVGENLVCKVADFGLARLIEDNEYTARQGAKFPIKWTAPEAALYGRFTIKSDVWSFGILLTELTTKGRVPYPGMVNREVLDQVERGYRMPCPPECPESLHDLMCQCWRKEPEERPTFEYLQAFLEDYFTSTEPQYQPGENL
T4 sequence (P45984 whole entry, species assumed): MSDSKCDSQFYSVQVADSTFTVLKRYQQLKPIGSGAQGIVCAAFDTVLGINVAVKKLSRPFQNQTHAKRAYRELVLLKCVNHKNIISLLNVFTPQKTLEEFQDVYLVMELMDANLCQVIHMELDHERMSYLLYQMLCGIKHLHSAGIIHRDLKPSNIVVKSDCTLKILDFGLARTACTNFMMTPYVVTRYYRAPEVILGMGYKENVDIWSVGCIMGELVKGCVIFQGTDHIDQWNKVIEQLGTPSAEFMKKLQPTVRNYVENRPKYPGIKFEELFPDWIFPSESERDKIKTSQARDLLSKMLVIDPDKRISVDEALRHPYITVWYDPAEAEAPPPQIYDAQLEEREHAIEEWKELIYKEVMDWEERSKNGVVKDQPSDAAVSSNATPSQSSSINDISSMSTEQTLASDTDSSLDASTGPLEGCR
T2 sequence (Q15759 whole entry, species assumed): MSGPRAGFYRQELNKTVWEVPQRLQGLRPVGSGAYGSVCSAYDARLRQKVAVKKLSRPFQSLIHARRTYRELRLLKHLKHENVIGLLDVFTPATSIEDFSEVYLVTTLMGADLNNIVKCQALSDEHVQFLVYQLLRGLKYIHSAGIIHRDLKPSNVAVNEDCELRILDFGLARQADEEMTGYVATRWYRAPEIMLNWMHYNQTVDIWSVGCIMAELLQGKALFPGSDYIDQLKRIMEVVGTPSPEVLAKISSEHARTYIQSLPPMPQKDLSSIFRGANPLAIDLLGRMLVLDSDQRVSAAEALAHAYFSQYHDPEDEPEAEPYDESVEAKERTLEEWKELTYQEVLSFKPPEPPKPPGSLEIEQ
T1 sequence (P06213 28-1382, species assumed): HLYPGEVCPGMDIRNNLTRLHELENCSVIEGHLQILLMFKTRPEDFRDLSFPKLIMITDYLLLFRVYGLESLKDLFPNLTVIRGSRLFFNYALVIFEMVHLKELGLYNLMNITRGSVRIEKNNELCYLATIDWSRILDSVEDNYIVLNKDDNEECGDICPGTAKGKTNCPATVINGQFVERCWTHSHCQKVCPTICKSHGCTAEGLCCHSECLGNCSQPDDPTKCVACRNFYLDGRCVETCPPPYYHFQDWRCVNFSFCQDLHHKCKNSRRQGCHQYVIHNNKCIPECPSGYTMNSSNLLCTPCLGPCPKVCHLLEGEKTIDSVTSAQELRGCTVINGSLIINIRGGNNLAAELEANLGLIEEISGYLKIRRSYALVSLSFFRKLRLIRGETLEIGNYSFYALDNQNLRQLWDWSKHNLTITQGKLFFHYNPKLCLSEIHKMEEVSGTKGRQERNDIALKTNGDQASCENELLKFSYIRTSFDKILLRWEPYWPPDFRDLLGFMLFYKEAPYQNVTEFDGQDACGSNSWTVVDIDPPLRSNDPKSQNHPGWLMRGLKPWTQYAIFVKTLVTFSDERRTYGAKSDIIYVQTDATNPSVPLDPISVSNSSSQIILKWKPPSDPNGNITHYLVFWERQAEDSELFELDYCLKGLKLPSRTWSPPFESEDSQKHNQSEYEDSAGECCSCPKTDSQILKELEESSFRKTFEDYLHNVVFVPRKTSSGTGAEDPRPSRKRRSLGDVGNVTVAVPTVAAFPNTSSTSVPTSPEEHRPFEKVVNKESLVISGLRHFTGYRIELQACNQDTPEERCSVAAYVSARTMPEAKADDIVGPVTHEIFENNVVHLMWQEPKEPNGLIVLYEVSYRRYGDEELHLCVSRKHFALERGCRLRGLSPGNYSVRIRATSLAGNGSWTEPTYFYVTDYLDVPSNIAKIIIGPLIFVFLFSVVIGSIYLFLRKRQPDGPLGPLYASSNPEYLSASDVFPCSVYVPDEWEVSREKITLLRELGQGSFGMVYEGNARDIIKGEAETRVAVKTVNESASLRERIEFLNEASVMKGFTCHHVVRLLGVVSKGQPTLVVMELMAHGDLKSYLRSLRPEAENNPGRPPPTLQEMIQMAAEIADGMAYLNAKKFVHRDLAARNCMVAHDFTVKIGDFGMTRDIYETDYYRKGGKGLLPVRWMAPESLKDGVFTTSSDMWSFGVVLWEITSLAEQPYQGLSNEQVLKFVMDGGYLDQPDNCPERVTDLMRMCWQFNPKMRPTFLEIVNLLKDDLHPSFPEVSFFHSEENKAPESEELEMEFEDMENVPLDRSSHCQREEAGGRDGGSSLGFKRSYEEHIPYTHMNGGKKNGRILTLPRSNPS
T14 sequence (Q16513 whole entry, species assumed): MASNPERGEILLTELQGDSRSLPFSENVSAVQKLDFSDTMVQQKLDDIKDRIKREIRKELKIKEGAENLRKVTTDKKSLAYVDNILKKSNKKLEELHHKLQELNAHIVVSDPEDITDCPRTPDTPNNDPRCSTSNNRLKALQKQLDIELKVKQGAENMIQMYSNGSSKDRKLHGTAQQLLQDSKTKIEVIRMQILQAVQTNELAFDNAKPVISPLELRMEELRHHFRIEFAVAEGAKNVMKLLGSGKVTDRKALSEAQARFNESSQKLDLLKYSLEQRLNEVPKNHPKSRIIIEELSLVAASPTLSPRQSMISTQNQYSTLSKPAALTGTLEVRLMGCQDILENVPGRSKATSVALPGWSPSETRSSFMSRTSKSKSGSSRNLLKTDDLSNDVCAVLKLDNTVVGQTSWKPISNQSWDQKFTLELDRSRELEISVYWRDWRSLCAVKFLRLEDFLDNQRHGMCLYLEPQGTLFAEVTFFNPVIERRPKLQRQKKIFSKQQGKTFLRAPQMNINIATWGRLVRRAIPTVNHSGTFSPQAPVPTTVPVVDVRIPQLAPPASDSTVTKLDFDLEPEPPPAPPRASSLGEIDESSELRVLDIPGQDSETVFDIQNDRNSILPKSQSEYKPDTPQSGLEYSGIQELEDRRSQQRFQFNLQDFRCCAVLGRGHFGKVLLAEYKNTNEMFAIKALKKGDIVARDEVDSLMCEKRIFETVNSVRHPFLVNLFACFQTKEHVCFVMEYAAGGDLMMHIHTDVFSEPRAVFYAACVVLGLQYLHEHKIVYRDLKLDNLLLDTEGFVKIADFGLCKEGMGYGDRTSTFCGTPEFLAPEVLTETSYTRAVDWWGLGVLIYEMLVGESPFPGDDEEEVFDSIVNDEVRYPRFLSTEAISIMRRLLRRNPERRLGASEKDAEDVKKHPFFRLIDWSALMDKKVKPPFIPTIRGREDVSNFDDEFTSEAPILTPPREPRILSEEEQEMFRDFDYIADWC
T10 sequence (P53779 whole entry, species assumed): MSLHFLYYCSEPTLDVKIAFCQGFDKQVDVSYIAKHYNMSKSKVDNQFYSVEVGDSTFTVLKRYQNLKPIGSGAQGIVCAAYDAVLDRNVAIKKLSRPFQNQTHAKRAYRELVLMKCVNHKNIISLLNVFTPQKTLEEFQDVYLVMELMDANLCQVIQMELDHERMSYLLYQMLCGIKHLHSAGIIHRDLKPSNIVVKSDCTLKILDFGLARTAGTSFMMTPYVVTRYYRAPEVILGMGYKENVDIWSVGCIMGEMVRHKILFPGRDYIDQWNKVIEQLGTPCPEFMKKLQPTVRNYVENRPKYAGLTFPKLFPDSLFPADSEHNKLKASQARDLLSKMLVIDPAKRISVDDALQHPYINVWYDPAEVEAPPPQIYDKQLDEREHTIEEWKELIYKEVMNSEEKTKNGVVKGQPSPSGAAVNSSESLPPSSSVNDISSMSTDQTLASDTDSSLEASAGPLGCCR

For the compound `c1ccc(Cc2c[nH]c3ncsc23)cc1` [Compound A7, 6-benzyl-4H-pyrrolo[2,3-d]thiazole], the negative logarithm of the IC50 (pIC50) at INSR was below 6.00; on MAPK11 it was 5.00 to 6.00; on PRKCA, 4.00 to 5.00; at MAPK9, 4.00 to 5.00; on MYLK, below 6.00; at SRC, 5.00 to 6.00. Besides, the negative-log IC50 (pIC50) on MST4, at TBK1, on MAPK12, at MAPK10, at DYRK2 and at HIPK1 was below 6.00 each time. Also, the pIC50 on PLK1 is below 6.00; on PKN2 (PRK2) it was 5.00 to 6.00.

In the case of `Nc1ncsc1C#Cc1cnc2[nH]ccc2c1` [Compound A22, 5-(1H-pyrrolo[2,3-b]pyridin-5-ylethynyl)thiazol-4-ylamine], the pIC50 on INSR was 4.00 to 5.00; at MAPK11 it was below 6.00; on PRKCA it was 5.00 to 6.00; at MAPK9, below 6.00; at MYLK, below 6.00; on SRC, 4.00 to 5.00. For the same compound, the pIC50 was 5.00 to 6.00 on MST4; below 6.00 at TBK1; 5.00 to 6.00 on MAPK12; below 6.00 at MAPK10; below 6.00 on DYRK2; 6.00 to 8.00 at HIPK1. Besides, the figures for the pIC50 on PLK1 and at PKN2 (PRK2) were 5.00 to 6.00 and 6.00 to 8.00, respectively. In addition, the remaining activity at 1 µM on HIPK1 was 36%; on PKN2 (PRK2) (read-out: residual kinase activity PRK2), 38%.

Turning to `CC(C)(C)OC(=O)Nc1nc(-c2ccncc2)sc1C#CCN1CCOCC1` [Compound A25, tert-butyl[5-(3-morpholin-4-ylprop-1-ynyl)-2-pyridin-4-ylthiazol-4-yl]-carbamate], the pIC50 on INSR is below 6.00; on MAPK11 it was below 6.00; at PRKCA, 4.00 to 5.00; on MAPK9, below 6.00; at MYLK, below 6.00; at SRC, 5.00 to 6.00. Moreover, the negative logarithm of the IC50 (pIC50) on MST4 was below 6.00; on TBK1, 4.00 to 5.00; on MAPK12 it was 4.00 to 5.00; at MAPK10, below 6.00; on DYRK2 it was below 6.00; on HIPK1 it was 6.00 to 8.00. For the same compound, the negative logarithm of the IC50 (pIC50) on PLK1 and at PKN2 (PRK2) was below 6.00 in each case. In addition, the remaining activity at 1 µM on HIPK1 came to 48%.

As to `CC(C)(C)OC(=O)Nc1ncsc1C#CCN1C(=O)c2ccccc2C1=O` [Compound A26, tert-butyl{5-[3-(1,3-dioxo-1,3-dihydroisoindol-2-yl)prop-1-ynyl]-thiazol-4-yl}carbamate], the negative logarithm of the IC50 (pIC50) on INSR is 5.00 to 6.00; at MAPK11, below 6.00; at PRKCA, 5.00 to 6.00; at MAPK9, below 6.00; on MYLK, below 6.00; at SRC it was 4.00 to 5.00. Besides, the pIC50 was 4.00 to 5.00 on MST4; below 6.00 on TBK1; 4.00 to 5.00 on MAPK12; below 6.00 on MAPK10; below 6.00 at DYRK2; below 6.00 at HIPK1. Besides, the negative logarithm of the IC50 (pIC50) was below 6.00 on PLK1 and 5.00 to 6.00 at PKN2 (PRK2).

For `Nc1ncsc1C#Cc1cccc(O)c1` [Compound A27, 3-(4-aminothiazol-5-ylethynyl)phenol], the pIC50 at INSR was 4.00 to 5.00; at MAPK11, 5.00 to 6.00; on PRKCA it was below 6.00; on MAPK9, 5.00 to 6.00; at MYLK it was 5.00 to 6.00; at SRC it was 5.00 to 6.00. The pIC50 at MST4 is below 6.00; on TBK1, below 6.00; at MAPK12, 5.00 to 6.00; at MAPK10, 5.00 to 6.00; at DYRK2, 5.00 to 6.00; on HIPK1, 5.00 to 6.00. For the same compound, the negative-log IC50 (pIC50) on PLK1 and on PKN2 (PRK2) was 4.00 to 5.00 each time.
